Consider 44 compounds from US20050288347A1, “Certain triazole-based compounds, compositions, and uses thereof” (priority 2004, published 2005).

“Also recorded” adds a separate entry of the source.

The first assay concerns the target protein kinase. The experiment in a line: HTS ATP-utilizing enzyme assay, off-chip mobility-shift format (Caliper HTS 250). The class given is biochemical, human. To be noted: kinase(s) for which the compound exhibits protein kinase inhibitory activity; test compound 10 μM; active = greater than three-sigma from the mean activity of inactive compounds. The text has this: The following procedures describe the reagent and plate preparation for a HTS of an ATP-utilizing enzyme, such as a protein kinase, run in an off-chip mobility-shift assay format. The following provides an HTS protocol for running a protein kinase HTS screen on a Caliper HTS 250 microfluidics system. The following parameters are dependent on the protein kinase used and can be determined by one skilled in the art as part of a typical assay development process. For example, the peptide substrate used can be identified from the current literature, by screening a peptide library of potential protein kinase substrates, or by other applicable means accepted in the field.
The following table provides typical screen assay parameters appropriate for a Caliper HTS 250 microfluidics system.
The reagents and buffers listed in the following table are generally applicable for developing and running an HTS screen on a human protein kinase using the Caliper HTS 250 system.
The following reagents were prepared using the previously described buffers.
A 2× Master Buffer solution was prepared by combining 200 mL of 1 M HEPES, pH 7.5, 2 mL of 10% Triton X-100, 20 mL of 10% BSA, and 778 mL of H2O.
Assays to determine the kinase inhibitory activity of chemical entities of the present disclosure were performed using a Caliper HTS 250 microfluidics device, Greiner U-bottom assay plates, a Multidrop for transfer of reagents, and Biomek FX (AMNCBM03) software. Initially, 2.4 μL of a 1 mM solution of a test compound in 100% DMSO was added to a well of the Greiner U-bottom plate. A single Greiner U-bottom plate having 24×16 wells could include multiple test compounds. […] Using the Biomek FX, 10 μL of 0.5 M EDTA was added by the span-8 to wells, indicated as 100% Control and 2.4 μL of 100% DMSO was added by the span-8 to wells, indicated as 0% Control. […] The total reaction volume in each well was 25 μL, and the concentration of the test compound was 10 μM. The assay plate was incubated for 2.5 hrs at 20° C. to 22° C. […] The inhibition of the ATP-utilizing enzyme, such as a particular protein kinase, was determined by measuring the ratio of the peptide substrate to phosphorylated product for each well of the assay plate using the Caliper HTS 250 system.
The use of three-sigma statistical limits represents a conservative method for declaring potential hits among targets. The three-sigma activity, as well as the mean population activity, can be different for each target enzyme.
For the compound `COc1ccc(NCc2nnc(SCC(=O)O)n2-c2ccc(OC)cc2)cc1`, the Kinase entry was “PDGFRR-α and FYN”.
For `CCn1c(CNc2cccc(C(F)(F)F)c2)nnc1SCC#N`, the Kinase entry was “CDK2 and CDK1 and CHEK2”.
The same measure, in the same setting: in the case of `C=CCn1c(Sc2c(O)nc3ccccc3c2-c2ccccc2)nnc1-c1ccc(Cl)c(Cl)c1` it was “FLT-3”; in that of `CCc1nnc(NC(=O)CSc2nnc(-c3ccc(O)cc3)n2-c2cccc(Cl)c2)s1`, “GSK3-β; also recorded: GSK3-α”; in that of `Cc1ccc(-n2c(SCC(=O)O)nnc2-c2ccc([N+](=O)[O-])cc2)cc1` [2-(5-(4-nitrophenyl)-4-p-tolyl-4H-1,2,4-triazol-3-ylthio)acetic acid], “DAPK1”.
Turning to `Oc1ccc(-c2nnc(S)n2-c2cccc(Cl)c2)cc1` [4-(4-(3-chlorophenyl)-5-mercapto-4H-1,2,4-triazol-3-yl)phenol], the Kinase result is “CDK5 and CDK2-cyclinA and CDK2-cyclinE”.
Same read-out and setting: for `O=C(CSc1nnc(-c2ccc([N+](=O)[O-])cc2)[nH]1)c1ccccc1` [2-(5-(4-nitrophenyl)-4H-1,2,4-triazol-3-ylthio)-1-phenylethanone] the value was “FLT-3; also recorded: GSK3-β; also recorded: AURORA-A”.
For `CCn1c(SCC(=O)N2CCOCC2)nnc1-c1ccc(S(=O)(=O)N2CCCCC2)cc1`, the Kinase result is “PAK2”.
With `Cc1nnc(S)n1CC1CCCO1` (centres unmarked) [5-methyl-4-((tetrahydrofuran-2-yl)methyl)-4H-1,2,4-triazole-3-thiol], the Kinase result was “MAPKAPK-2”.
The same measure, in the same setting: in the case of `O=C(CSc1nnc(-c2ccncc2)n1CC1CCCO1)Nc1nccs1` (centres unmarked) it was “GSK3-β and GSK3-α and ABL1”; in that of `CCn1c(CNc2ccc(OC)cc2)nnc1SCC(=O)Nc1ccccc1-c1ccccc1`, “PDGFRR-α and FYN and GSK3-β”; in that of `COc1cc(-c2nnc(SCC(=O)Nc3cc([N+](=O)[O-])ccc3C)n2C)cc(OC)c1OC`, “MAPKAPK-2”.
The same measure, in the same setting: for `Cn1c(COc2ccc([N+](=O)[O-])cc2)nnc1SCC(=O)Nc1sc2c(c1C(N)=O)CCCC2` the value was “GSK3-β; also recorded: GSK3-α; also recorded: AURORA-A”; for `CCn1c(COc2ccc(Cl)c(C)c2)nnc1SCC#N`, “AURORA-A”.
Same read-out and setting: for `Cc1ccc([N+](=O)[O-])cc1NC(=O)CSc1nnc(-c2ccc([N+](=O)[O-])cc2)n1C` the value was “PDGFRR-α”; for `Cn1c(SCC(=O)OC2CCCCC2)nnc1-c1ccc(O)cc1`, “GSK3-α”; for `Cc1cccc(-c2nnc(SCC(=O)c3ccc4c(c3)OCCO4)[nH]2)c1`, “FLT-3; also recorded: GSK3-α; also recorded: AURORA-A”.
Regarding `Cc1nc(NC(=O)CSc2nnc(-c3cccnc3)n2Cc2ccco2)sc1C`, the Kinase result was “GSK3-β; also recorded: AURORA-A”.
For the compound `C=C(C)Cn1c(S)nnc1-c1ccccc1Br` [5-(2-bromophenyl)-4-(2-methylallyl)-4H-1,2,4-triazole-3-thiol], the Kinase entry is reported as “PDGFRR-α”.
Same read-out and setting: in the case of `COC(=O)CSc1nnc(CNc2ccc(OC)cc2)n1C` it was “PDGFRR-α and FYN”.
On to `Cc1nnc(SCC(N)=O)n1-c1ccccc1` [2-(5-methyl-4-phenyl-4H-1,2,4-triazol-3-ylthio)acetamide], for which the Kinase entry is recorded as “DYRK2”.
Same read-out and setting: in the case of `Cc1nnc(SCC(=O)c2ccccc2)[nH]1` [2-(5-methyl-4H-1,2,4-triazol-3-ylthio)-1-phenylethanone] it was “GSK3-α; also recorded: GSK3-β; also recorded: DYRK2”; in that of `COc1ccccc1-n1c(SCC(=O)O)nnc1C1CCCCC1` [2-(5-cyclohexyl-4-(2-methoxyphenyl)-4H-1,2,4-triazol-3-ylthio)acetic acid], “GSK3-β”.
Still for that read-out and setting: for `O=C(CSc1nnc(-c2ccc(O)cc2)n1Cc1ccco1)Nc1nccs1` the value was “GSK3-β and GSK3-α and MSK2”; for `COc1ccc(-n2c(SCC#N)nnc2-c2ccc(NC(=O)c3ccccc3)cc2)cc1`, “CHEK2 and AKT1”; for `O=C(O)CSc1nnc(-c2cccs2)[nH]1` [2-(5-(thiophen-2-yl)-4H-1,2,4-triazol-3-ylthio)acetic acid], “DYRK2; also recorded: GSK3-β; also recorded: GSK3-α”.
Still for that read-out and setting: in the case of `O=C(CSc1nncn1-c1ccccn1)Nc1nccs1` [2-(4-(pyridin-2-yl)-4H-1,2,4-triazol-3-ylthio)-N-(thiazol-2-yl)acetamide] it was “GSK3-α”; in that of `COc1ccc(-n2c(SCC(N)=O)nnc2-c2ccc(O)cc2)cc1`, “GSK3-β; also recorded: GSK3-α”; in that of `COc1ccc(-c2nnc(SCC(=O)Nc3ccc4c(c3)OCO4)n2C)cc1`, “AKT1”.
Take `COc1cc(NC(=O)CSc2nncn2N)cc(OC)c1` [2-(4-amino-4H-1,2,4-triazol-3-ylthio)-N-(3,5-dimethoxyphenyl)acetamide]: the Kinase result is “DYRK2”.
Turning to `CCn1c(SC(C)C(=O)O)nnc1-c1cccnc1` (centres unmarked) [2-(4-ethyl-5-(pyridin-3-yl)-4H-1,2,4-triazol-3-ylthio)propanoic acid], the Kinase result was “LYNA”.
Still for that read-out and setting: for `COc1cccc(NC(=O)CSc2nnc(CNc3ccc(C)cc3)n2C)c1` the value was “CHEK2”; for `Cc1nc(NC(=O)CSc2nnc(C3CC3)n2C)sc1C`, “GSK3-β; also recorded: GSK3-α”.

The assay is the same for the next values; noted with them: test compound 10 μM; active = activity greater than three-sigma from the mean of the predominately inactive population for that enzyme.
Regarding `CCCCSc1nnc(COc2ccc(Br)cc2)n1CC` [3-((4-bromophenoxy)methyl)-5-(butylthio)-4-ethyl-4H-1,2,4-triazole], the “protein kinase against which the compound exhibits inhibitory activity (Table 3)” value is reported as “CDK2-cyclinA; also recorded: AURORA-A”.
Same read-out and setting: for `CC(C)=CCSc1nnc(Cc2ccccc2)n1Cc1ccc(Cl)c(Cl)c1` the value was “c-TAK1”; for `CCOc1ccc2nc(-c3ccc(OC)cc3)cc(-c3nnc(SCc4ccc(F)cc4C(F)(F)F)n3C)c2c1`, “AURORA-A”.
As to `CCCCSc1nnc(-c2ccccc2)[nH]1` [3-(butylthio)-5-phenyl-4H-1,2,4-triazole], the “protein kinase against which the compound exhibits inhibitory activity (Table 3)” value is listed as “AURORA-A; also recorded: FLT-3; also recorded: c-TAK1”.
Still for that read-out and setting: in the case of `OCC(O)CSc1nnc(-c2cccc(Cl)c2)[nH]1` (centres unmarked) [3-(5-(3-chlorophenyl)-4H-1,2,4-triazol-3-ylthio)propane-1,2-diol] it was “AURORA-A; also recorded: FLT-3; also recorded: CHEK2”; in that of `COc1ccc(-c2nnc(SCc3ccncc3)[nH]2)cc1` [4-((5-(4-methoxyphenyl)-4H-1,2,4-triazol-3-ylthio)methyl)pyridine], “FLT-3; also recorded: DYRK2; also recorded: GSK3-α”.
With `CCN(CC)S(=O)(=O)c1ccc(-c2nnc(SCC(=O)N3c4ccccc4CCc4ccccc43)n2CC)cc1`, the “protein kinase against which the compound exhibits inhibitory activity (Table 3)” value is recorded as “DAPK1”.
`COc1ccc(Cc2nnc(SCc3cccc4ccccc34)[nH]2)cc1` [3-(4-methoxybenzyl)-5-(naphthalen-1-ylmethylthio)-4H-1,2,4-triazole]: the “protein kinase against which the compound exhibits inhibitory activity (Table 3)” value is “AURORA-A”.
As for `Cc1ccc(-n2c(SCc3nnc(-c4ccccc4)o3)nnc2-c2ccncc2)cc1`, the “protein kinase against which the compound exhibits inhibitory activity (Table 3)” value is recorded as “GSK3-β; also recorded: GSK3-α”.
Still for that read-out and setting: for `O=C1c2ccccc2C(=O)N1CCSc1nnc(-c2ccc([N+](=O)[O-])cc2)[nH]1` [2-(2-(5-(4-nitrophenyl)-4H-1,2,4-triazol-3-ylthio)ethyl)isoindoline-1,3-dione] the value was “GSK3-α”; for `C=C(C)Cn1c(SCC(=O)NN)nnc1-c1ccc(Br)cc1`, “LCK”.
